Measurements as given in patent publication US6716574B2, “Osp-C derived peptide fragments” (Dako A/S, priority 1996, dated 2004).
Square brackets hold non-standard residues; d marks the D form. Thz = O=C(O)[C@@H]1CSCN1

How the values were obtained:
[1] = test system: polyclonal anti-OspC antibodies (IgM) in sera from LB patients; assay: Inhibition of binding of anti-OspC antibodies in patient sera to rOspC-coated ELISA plates; set-up: species or system human; details: for number of sera in which binding to rOspCfl was inhibited: of 5 antisera
Source text: Therefore, a set of experiments have been carried out where the ability have been tested of a number of analogues of the C-terminus of SEQ ID NO: 3 to inhibit the immune reactivity between rOspCfl and selected antisera in an ELISA. More specifically, the ability of the various analogues to inhibit the binding of polyclonal anti-OspC antibodies in solution was examined in sera from LB patients to rOspC-coated ELISA plates.
The immunoreactivity to OspC was specified by using six randomly selected NB sera with an OD>1.5 in the IgM rOspC ELISA. The respective serum dilutions were determined, based on a serum dilution curve obtained in the IgM rOspC ELISA, for each of the six sera. The highest dilution, which still achieved the maximal OD value was used. 5 sera were diluted 1:200, and one serum 1:1000. The sera were diluted in the buffer used for the IgM rOspC ELISAs.
The affinity of the OspC derivatives was measured by incubation of each of the six sera with the respective OspC derivatives at 10 different dilutions (covering a two-fold range) overnight at 4° C. The rOspC ELISA was then performed as described previously, in order to determine the effect of the IgM binding to OspC.

[2] = test system: IgM antibodies to OspC in sera from patients; assay: Indirect ELISA for IgM antibodies to full-length and truncated recombinant OspC (rOspC ELISA); assay type: binding, human; details: for immunoassay results compared with rOspCfl from B. garinii: sera of Example 2
Experimental: Indirect ELISA for IgM Antibodies to Full-length and Truncated Recombinant OspC (rOspC ELISA)
Flat-bottom microdilution plates (Maxisorb; Nunc, Roskilde, Denmark) were coated with 100 μl of rOspC diluted in 0.05 M bicarbonate pH 9.6 for 1 hour at 20° C. on a rocker platform and thereafter overnight at 4° C. The optimum coating concentration was defined as the antigen dilution resulting in the highest ratio of the optical density (OD) between a positive and a negative control serum (P/N ratio). The plates were washed four times à one minute with PBS containing 0.5 M NaCL, and 0.1% (vol/vol) Tween 20 (pH 7.2) and unspecific protein binding was blocked with 100 μl 3% (wt/vol) milk powder in PBS for 1 hour. The plates were washed four times à one minute with PBS containing 0.5 M NaCL, and 0.1% (vol/vol) Tween 20 (pH 7.2). 100 μl of serum diluted 1:200 in PBS containing 0.1% (vol/vol) Tween 20, 0.02% NaN3 and 1% (wt/vol) milk powder was added to the wells and incubated for 2 h at 20° C. The plates were washed four times à one minute with PBS containing 0.5 M NaCL, and 0.1% (vol/vol) Tween 20 (pH 7.2) and 100 μl peroxidase conjugated rabbit anti-human immunoglobulin M (IgM) (Dakopats, Copenhagen, Denmark, code P-215) diluted 1:1000 in PBS pH 7.4 with 0.05% (vol/vol) Tween 20 and 1% (wt/vol) milk powder. After the incubation for 1 h at 20° C. the plates were washed four times à one minute with PBS containing 0.5 M NaCL, and 0.1% (vol/vol) Tween 20 (pH 7.2) and 200 μl of the substrate o-phenylenediamine (0.41 mg/ml; Sigma) in citrate buffer (pH 5) with 0.04% (vol/vol) H2O2) was added to each well. After 15 minutes protected from light, the enzymatic reaction was stopped by the addition of 50 μl of 3M H2SO4. The optical density (OD) at 492 nm was read spectrophotometrically (Immuno Reader, Easy reader EAR 400 AC—SLT Labinstruments, AUSTRIA). Samples were tested in duplicate and retested, if the two OD values differed more than 10% from the mean. To eliminate plate-to-plate and day-to-day variations, a reference serum pool based on seven western blot positive sera were included on every plate for construction of a standard dilution curve with a two fold dilution ranging from 1:200 to 1:6400. The OD value of every sample was adjusted to this standard curve. Positive and negative control sera were included on every plate. The positive control sera were diluted 1:200, 1:400 and 1:800 on every plate to check for parallelism between the standard reference curve and the dilution curve of the positive control sera.
The diagnostic cutoff OD was adjusted to be 98% specific for an IgM assay on the basis of serum samples from 100 healthy danish blood donors, and was 0.230 for the IgM assay.
In a preliminary setup, rOspCt was used in the above-described rOspC ELISA. Sera from 47 patients with EM, 50 with NB, 30 with ACA and 29 with syphilis were tested against rOspCt.
The capability of an immunological agent according to the present invention to react with sera from patients in various stages of Lyme borreliosis was evaluated against that of recombinant OspC derived from B. garinii and against conventional flagellum ELISAs (performed as described in Hansen K. et al. (1991) and Hansen K. et al. (1988)). These flagellum assays (testing for IgM and IgG antibodies to native B. burgdorferi flagellum) are commercially available, a μ-capture ELISA (DAKO, Denmark code K006), and an indirect IgG ELISA (DAKO, Denmark code K416). Both assays use flagella purified from strain DK1 belonging to the genospecies of B. afzelii. The ELISAs were performed according to the instructions of the manufacturer, and the results were expressed as optical density (OD) values. In both assays the diagnostic cut-off level was adjusted to a specificity of 98% based on the examination of 100 blood donors.

9-arg: variant of SEQ ID NO: 1 in which 9-lys was substituted with 9-arg (PVVAESPKRP; FRAGMENT TYPE C-terminal; STRAIN DK6, INDIVIDUAL ISOLATE BN1068; listed as Borrelia garinii)
ability to inhibit binding between rOspCfl and the 5 antisera [1]: no effect

NH2-AVVAESPKKP-COOH (H-AVVAESPKKP-OH) [SEQ ID NO: 32]
ability to inhibit binding between rOspCfl and the 5 antisera [1]: capable of inhibiting binding

NH2-PAVAESPKKP-COOH (H-PAVAESPKKP-OH) [SEQ ID NO: 31]
ability to inhibit binding between rOspCfl and the 5 antisera [1]: capable of inhibiting binding

NH2-PKKP-COOH (H-PKKP-OH) [SEQ ID NO: 22]
patient sera in which binding between rOspCfl and antibodies was inhibited ([1]; six NB sera with OD>1.5 in the IgM rOspC ELISA): one single serum

NH2-PPPPESPKKP-COOH (H-PPPPESPKKP-OH) [SEQ ID NO: 39]
inhibition ([1]; Serum 1): 70% inhibition
inhibition ([1]; Serum 2): 100% inhibition
inhibition ([1]; Serum 3): 100% inhibition
inhibition ([1]; Serum 4): 0% inhibition
inhibition ([1]; Serum 5): 40% inhibition

NH2-PVAAESPKKP-COOH (H-PVAAESPKKP-OH) [SEQ ID NO: 30]
ability to inhibit binding between rOspCfl and the 5 antisera [1]: capable of inhibiting binding

NH2-PVVAASPKKP-COOH (H-PVVAASPKKP-OH) [SEQ ID NO: 28]
ability to inhibit binding between rOspCfl and the 5 antisera [1]: capable of inhibiting binding

NH2-PVVAEAPKKP-COOH (H-PVVAEAPKKP-OH) [SEQ ID NO: 27]
ability to inhibit binding between rOspCfl and the 5 antisera [1]: capable of inhibiting binding

NH2-PVVAES*KKP-COOH (H-PVVAES[Thz]KKP-OH; SMILES CC(C)[C@H](NC(=O)[C@@H]1CCCN1)C(=O)N[C@H](C(=O)N[C@@H](C)C(=O)N[C@@H](CCC(=O)O)C(=O)N[C@@H](CO)C(=O)N1CSC[C@H]1C(=O)N[C@@H](CCCCN)C(=O)N[C@@H](CCCCN)C(=O)N1CCC[C@H]1C(=O)O)C(C)C) [* designates L-thiazolidine-4-carboxylic acid]
number of sera in which binding to rOspCfl was inhibited [1]: 5 sera

NH2-PVVAESAKKP-COOH (H-PVVAESAKKP-OH) [SEQ ID NO: 26]
number of sera in which binding to rOspCfl was inhibited [1]: 1 sera

NH2-PVVAESPAKP-COOH (H-PVVAESPAKP-OH) [SEQ ID NO: 25]
number of sera in which binding to rOspCfl was inhibited [1]: 3 sera

NH2-PVVAESPKAP-COOH (H-PVVAESPKAP-OH) [SEQ ID NO: 24]
number of sera in which binding to rOspCfl was inhibited [1]: 1 sera

NH2-PVVAESPKKA-COOH (H-PVVAESPKKA-OH) [SEQ ID NO: 23]
number of sera in which binding to rOspCfl was inhibited [1]: 0 sera

NH2-PVVAESPKKP-CONH2 (H-PVVAESPKKP-NH2) [SEQ ID NO: 33]
ability to inhibit binding between rOspCfl and the 5 antisera [1]: incapable of inhibiting binding

NH2-PVVAESPKNP-COOH (H-PVVAESPKNP-OH) [SEQ ID NO: 38]
inhibition ([1]; Serum 1): 50% inhibition
inhibition ([1]; Serum 2): 0% inhibition
inhibition ([1]; Serum 3): 0% inhibition
inhibition ([1]; Serum 4): 0% inhibition
inhibition ([1]; Serum 5): 0% inhibition

NH2-PVVFESPKKP-COOH (H-PVVFESPKKP-OH) [SEQ ID NO: 29]
ability to inhibit binding between rOspCfl and the 5 antisera [1]: capable of inhibiting binding

NH2-PVVPESPKKP-COOH (H-PVVPESPKKP-OH) [SEQ ID NO: 37]
inhibition ([1]; Serum 1): 70% inhibition
inhibition ([1]; Serum 2): 100% inhibition
inhibition ([1]; Serum 3): 100% inhibition
inhibition ([1]; Serum 4): 0% inhibition
inhibition ([1]; Serum 5): 40% inhibition

B1: B. afzelii derived rOspCt: recombinant B. afzelii DK26 OspC truncate lacking the seven C-terminal amino acids (protein)
chain: CNNSGKGGDSASTNPADESAKGPNLTEISKKITDSNAFVLAVKEVETLVLSIDELAKKAIGQKIDNNNGLAALNNQNGSLLAGAYAISTLITEKLSKLKNLEELKTEIAKAKKCSEEFTNKLKSGHADLGKQDATDDHAKAAILKTHATTDKGAKEFKDLFESVEGLLKAAQVALTNSVKELTSPVV
modifications: left off: small tags and cut ends
notes: recombinant B. afzelii DK26 OspC truncate lacking the seven C-terminal amino acids
Positive rOspCt ELISA results ([2]; serum panel 1, IgM): no positives

B2: rOspCt: recombinant B. garinii OspC truncate which lacks the 7 carboxyterminal amino acids (protein)
chain: CNNSGGDSASTNPDESAKGPNLTVISKKITDSNAFLLAVKEVEALLSSIDELSKAIGKKIKNDGTLDNEANRNESLIAGAYEISKLITQKLSVLNSEELKEKIKEAKDCSEKFTTKLKDSHAELGIQSVQDDNAKKAILKTHGTKDKGAKELEELFKSLESLSKAAQAALTNSVKELTNPVVAESPKKP
modifications: left off: small tags and cut ends
notes: recombinant B. garinii OspC truncate which lacks the 7 carboxyterminal amino acids
Positive rOspCt ELISA results ([2]; ACA sera (N = 30), IgM, B. garinii rOspCt): n = 0 (0.00%)
Positive rOspCt ELISA results ([2]; EM and NB sera (n = 97), IgM, B. garinii rOspCt): n = 4 (4.12%)
Positive rOspCt ELISA results ([2]; EM sera (n = 47), serum panel 1, IgM, B. garinii rOspCt, 98% specific cutoff): n = 1 (2.12%)
Positive rOspCt ELISA results ([2]; NB sera (n = 50), serum panel 1, IgM, B. garinii rOspCt): n = 3 (6.00%)
Positive rOspCt ELISA results ([2]; Syphilis control sera (n = 29), IgM, B. garinii rOspCt): n = 5 (17.24%)

B3: rOspCfl from B. afzelii: full-length recombinant OspC from strain DK26 of Borrelia afzelii (SEQ ID NO: 7) (protein, listed as Borrelia afzelii)
chain: MKKNTLSAILMTLFLFISCNNSGKGGDSASTNPADESAKGPNLTEISKKITDSNAFVLAVKEVETLVLSIDELAKKAIGQKIDNNNGLAALNNQNGSLLAGAYAISTLITEKLSKLKNLEELKTEIAKAKKCSEEFTNKLKSGHADLGKQDATDDHAKAAILKTHATTDKGAKEFKDLFESVEGLLKAAQVALTNSVKELTSPVVAESPKKP
immunoassay results compared with rOspCfl from B. garinii [2]: almost identical picture

B4: rOspCfl from B. burgdorferi sensu stricto: full-length recombinant OspC from strain DK7 of Borrelia burgdorferi sensu stricto (SEQ ID NO: 5) (protein)
chain: MKKNTLSAILMTLFLFISCNNSGKDGNTSANSADESVKGPNLTEISKKITDSNAVLLAVKEVEALLSSIDELAKAIGKKIKNDGSLGDEANHNESLLAGAYTISTLITQKLSKLNGSEGLKEKIAAAKKCSEEFSTKLKDNHAQLGIQGVTDENAKKAILKANAAGKDKGVEELEKLSGSLESLSKAAKEMLANSVKELTSPVVVESPKKP
modifications: Borrelia burgdorferi sensu stricto
immunoassay results compared with rOspCfl from B. garinii [2]: almost identical picture
